# Experiments:
# [1] = system: stem cell-derived β cells (SC-β cells); test: SC-β cell differentiation assayed at end of stage 6 (stage 6, day 14), flow cytometry; format: cell-based, human
# Protocol: (§1) Differentiations into SC-β cells were performed following a protocol described in [3] and as follows: HUES8 or 1016 cells were seeded at 6×10^5 cells/mL in mTeSR1 media and […] Y27632 (Sigma-Aldrich). The media was changed 48 h later and the differentiations were started 72 h after the cells were seeded. The media changes were as follows:
# (§2) Stage 5 EN: Days 14 and 16: S5+0.25 μM Sant1+100 nM RA+1 μM XXI (EMD Millipore)+10 μM Alk5i II (Axxora)+1 μM T3 (EMD Millipore)+20 ng/mL Betacellulin (Thermo Fisher Scientific). Days 18, 20: S5+25 nM RA+1 μM XXI+10 μM Alk5i II+1 μM T3+20 ng/mL Betacellulin.
# Stage 6 (3: Days 21-35 (change every other day): S3 media. In the final stage, cells were analyzed between 28 and 35 days of the protocol.
# (§3) Control and experimental samples were collected from differentiations performed in parallel with hPSC cells obtained from the same maintenance batch. Treatments with 0.35 μM verteporfin (Sigma-Aldrich), 10 μM roscovitine (Sellekchem), or DMSO (Sigma-Aldrich) were performed at the last stages of the differentiation including stage 4 (days 9-14), stage 5 (days 14-18), and stage 6 (day 18-25, first 7 days) in ultra-low attachment six-well plates (Corning).
# For infection, cell clusters collected from spinner flask suspension cultures were dissociated in Accutase (StemCell Technologies) for 10 min, followed by mechanical dissociation and centrifugation at 230 g for 5 min at room temperature (RT). Cell pellets were resuspended at a density of 2.5 million cells/mL in the stage-matched medium with polybrene reagent (Santa Cruz) at 8 μg/mL. Single-cell suspensions were combined with concentrated lentiviral particles and plated on ultra-low attachment six-well plates on a rocker plate set at 70 rpm in a 37° C. incubator, 5% CO2, and 100% humidity. Feeding schedule was followed depending on the stage of differentiation as described above.
# (§4) Differentiated cell clusters were dispersed into a single-cell suspension with TrypLE (Life Technologies) at RT, fixed with 4% paraformaldehyde at 4° C., washed three times in PBS+0.2% bovine serum albumin (Millipore)+0.1% saponin (Sigma), blocked for 30 min at 4° C. in PBS+5% donkey serum+0.1% saponin, incubated with primary antibodies overnight at 4° C., washed, and incubated with secondary antibodies for 1 h at RT. Stained, fixed cells were filtered through a 40-μm nylon mesh into flow cytometry tubes (BD Falcon) and were analyzed for relevant stage-specific marker expression using LSR II flow cytometers (BD Biosciences) and FlowJo for the data analysis. Samples stained with secondary antibodies only were used to gate on cells that are negative and accurately identified cells expressing the markers included in the analysis. For shRNA-infected samples, only infected GFP+ cells were included in the analysis (approximately in 30-40% of all cells). To quantify incorporation of EdU and estimate levels of proliferation, cells pulsed with 10 μM EdU for 4 h were dissociated as described above unless stated otherwise. The Click-IT EdU flow cytometry kit (Invitrogen) was used to detect EdU incorporation following the manufacturer's protocol with minor modifications.
# SC-β cells = test: Glucose-stimulated insulin secretion (GSIS) in vitro; format: cell-based, human
# Protocol: Approximately 1×10^6 SC-β cells in clusters were washed with Krebs buffer and incubated in low (2.8 mM) glucose Krebs in cell culture inserts (Millicell) to starve cells and remove residual insulin at 37° C. for 1 h. Clusters were washed and incubated in low glucose Krebs for 1 h and the supernantant was collected. They were then transferred to high (20 mM) glucose, incubated for 1 h and the supernatant was collected. For sequential GSIS challenges, this sequence of low- and high-glucose stimulations was repeated twice. At the end, clusters were incubated in 2.8 mM glucose+30 mM KCl Krebs (depolarization challenge) for 1 h and the supernatant was collected. Clusters were dispersed into single cells using TrypLE and cell number was estimated by a Vi-Cell counter (Beckman Coulter). Insulin concentration was determined for supernatant samples using the Human Ultrasensitive Insulin ELISA (ALPCO Diagnostics). Protein extraction was performed with the M-PER extraction reagent (Thermo Scientific), and insulin content was measured for each sample using the human Ultrasensitive Insulin ELISA kit. Insulin secretion levels were normalized to total insulin content for each sample. Stimulation indexes were calculated as a ratio of insulin secretion at high glucose (20 mM) relative to the basal secretion (2.8 mM glucose).
# [2] = system: hPSC-derived multipotent pancreatic progenitors (MPPs); format: cell-based, human; settings: 0.35 μM verteporfin during stage 4, vs DMSO
# Protocol: as §1
# Control and experimental samples were collected from differentiations performed in parallel with hPSC cells obtained from the same maintenance batch. […]
# as §4, with “Samples stained with secondary antibodies only were used to gate on cells that are negative and accurately identified cells expressing the markers included in the analysis. For shRNA-infected samples, only infected GFP+ cells were included in the analysis (approximately in 30-40% of all cells).” left out, “The Click-IT EdU flow cytometry kit (Invitrogen) was used to detect EdU incorporation following the manufacturer's protocol with minor modifications.” left out
# [3] = system: hPSC-derived MPPs differentiating into NGN3+ / CHGA+ endocrine progenitors; test: Endocrine specification of MPPs at stage 5, flow cytometry and qPCR; format: cell-based, human; settings: for CHGA+/NKX6-1+ endocrine progenitor cells by the end of stage 5: assayed at stage 5, day 7
# Protocol: as §1, §2, §3, §4
# The total RNA was isolated using the Direct-ZOL Miniprep kit (Zymo Research), and RNA was stored at −80° C. in RNA storage solution (Invitrogen) until subsequent analysis. […] Gene expression levels were determined with NanoString nSolver software with default parameters and normalized with the expression of five housekeeping genes (ITCH, RPL15, RPL19, TCEB1, and UBE2D3). […]
# SC-β cell grafts = test: Mouse transplantation analysis of SC-β cell grafts under the kidney capsule; format: in vivo, immunodeficient SCID-beige mice
# Protocol: Cell clusters were collected at the end of each of the differentiation stages and fixed with 4% paraformaldehyde for 1 h at RT, washed in 30% sucrose, embedded in OCT compound (Tissue-Tek) and sectioned for histological analysis. Clusters were blocked with PBS+ 0.1% Triton X-100 (VWR)+5% donkey serum (Jackson Immunoresearch) for 30 min at RT, incubated with primary antibodies overnight at 4° C., washed, and incubated with secondary antibodies for 1 h at RT. Stained clusters were washed and mounted in Flouromount-G (Invitrogen), covered with coverslips, and sealed with nail polish. Images were taken using a Zeis Axio Imager.Z2 and Apotome.2. Image analysis was performed with ImageJ. To estimate the relative proportion of cells in the graft, four tissue sections from different areas in the graft were imaged, and the relative proportions of relevant cell types were quantified as a percent of cells positive for the relevant marker of the total number DAPI nuclei. […]
# Dissociated SC-β cells were transplanted into the kidney capsule of immunodeficient SCID-beige mice (Jackson Laboratory), aged 8-10 weeks. […] Wound clips were removed 10 days after surgery and mice were monitored twice a week.
# Mice were then analyzed for graft function at various time points by performing in vivo [3]. […]
Compound,"proportion of C-peptide+/NKX6.1+ β cells ([1]; 0.35 μM verteporfin, end of stage 6, control 27.5±4.2%)","glucagon+/C-peptide- alpha cells ([1]; 0.35 μM verteporfin, end of stage 6, vs control)","effect on SC-endocrine and β-cell differentiation in other hPSC cell lines ([1]; 1016 and 13B iPSC lines, C-peptide/NKX6.1 and CHGA/NKX6.1 at stage 6 day 14)","proportion of SOX9+ ductal-like progenitor cells ([1]; treatment during endocrine and β-cell differentiation stages, end of stage 6, vs control)","proportion of Ki67+ proliferating cells ([1]; verteporfin during endocrine and β-cell differentiation stages, end of stage 6, vs control)","impaired endocrine differentiation upon YAPS6A overexpression ([1]; verteporfin treatment of YAPS6A-overexpressing cells, C-peptide/NKX6.1 at stage 6 day 14)","levels of insulin secretion per total insulin content at 2.8 mM glucose, 20 mM glucose, and 30 mM KCl (SC-β cells; SC-β cells differentiated with verteporfin vs DMSO control)","insulin secretion at high glucose over low glucose in sequential glucose stimulations (SC-β cells; verteporfin during stages 5 and 6, 20 mM vs 2.8 mM glucose)",stimulation indexes (insulin secretion at 20 mM relative to 2.8 mM glucose) (SC-β cells; verteporfin-treated vs control endocrine cells),proportion of MPPs coexpressing the proliferation marker Ki67 ([2]; PDX1/Ki67 at end of stage 4),number of NKX6.1+ progenitors compared with control differentiations ([2]; PDX1/NKX6.1 co-positive cells at end of stage 4),"proportion of NGN3+ endocrine progenitors ([3]; treatment during stage 5, assayed at stage 5, day 4, DMSO control 6.4±0.52%)",CHGA+/NKX6-1+ endocrine progenitor cells by the end of stage 5 ([3]; treatment during stage 5),"proportion of SOX9+ cells in the grafts (SC-β cell grafts; cells differentiated in the presence of verteporfin, 12-week post transplantation, SOX9+ of DAPI+, control grafts ~17%)","in vivo glucose-stimulated human insulin secretion (SC-β cell grafts; grafts of cells differentiated in the presence of verteporfin, serum human insulin before and 30 min after glucose injection, 8 weeks post transplantation)","differentiation of MPPs into NGN3+ endocrine progenitors (in words) ([3]; 10 μM roscovitine at stage 5, stage 5, day 4, compared with the verteporfin effect)"
verteporfin,38.6±3.9%,modest but significant increase,robust and independent of the genetic background,decrease,decrease,rescued,significantly higher,increase in insulin secretion at high glucose over low glucose,no statistically significant differences,twofold decrease,significant decrease,12.1±2%,increase,3.1%,robust,–
CC[C@H](CO)Nc1nc(NCc2ccccc2)c2ncn(C(C)C)c2n1 [roscovitine],–,–,–,–,–,–,–,–,–,–,–,–,not observed,–,–,did not have the same effect
